From PubChem BioAssay AID296 (DTP/NCI, 2004)
Values joined by “and” are separate entries in the source; they are usually repeats but may differ in a detail not shown here. Equal entries are not always repeated. Records with an inconclusive call do not appear.

Test system: MX-1 breast xenograft, nude mice, tumor weight T/C
Test: NCI In Vivo Anticancer Drug Screen. Data for tumor model Human Mammary Carcinoma MX-1 Xenograft (intrarenal inoculation) in NU/NU Swiss (nude) mice
Settings: endpoint: mean tumor weight change, higher = larger tumour
Procedure: The antitumor activity of compounds was measured in mice bearing transplantable tumors. Survival or tumor size were measured and the results are expressed as the measurement made in the treated group (T) divided by the measurement made in the vehicle treated control group (C). The tumor model used in this assay is Human Mammary Carcinoma MX-1 Xenograft (intrarenal inoculation) in NU/NU Swiss (nude) mice

[1] = dose: 150.0 mg/kg/injection, schedule: Q04DX003 (sc), vehicle: saline with Tween-80
[2] = dose: 300.0 mg/kg/injection, schedule: Q04DX003 (sc), vehicle: saline with Tween-80
[3] = dose: 50.0 mg/kg/injection, schedule: Q04DX003 (sc), vehicle: saline
[4] = dose: 150.0 mg/kg/injection, schedule: Q04DX003 (sc), vehicle: Klucel (hydroxypropylcellulose) (HPC)
[5] = dose: 300.0 mg/kg/injection, schedule: Q04DX003 (sc), vehicle: Klucel (hydroxypropylcellulose) (HPC)
[6] = dose: 25.0 mg/kg/injection, schedule: Q04DX003 (sc), vehicle: suspension in saline
[7] = dose: 100.0 mg/kg/injection, schedule: Q01DX010 (sc), vehicle: Klucel (hydroxypropylcellulose) (HPC)
[8] = dose: 600.0 mg/kg/injection, schedule: Q04DX003 (sc), vehicle: Klucel (hydroxypropylcellulose) (HPC)
[9] = dose: 1200.0 mg/kg/injection, schedule: Q04DX003 (sc), vehicle: Klucel (hydroxypropylcellulose) (HPC)

## CC(=O)OC1C(O)C(C)OC(OC2C(OC(=O)C3CCC4C(C3)OC3(CC(OC(=O)/C=C/c5ccccc5)C(C)CO3)C43CO3)OC(C)C(O)C2OC(C)=O)C1O (stereo not given)
dose: 15.0 mg/kg/injection, schedule: Q04DX003 (sc), vehicle: distilled water + Tween-80
  T/C: 124 % of control
dose: 30.0 mg/kg/injection, schedule: Q04DX003 (sc), vehicle: distilled water + Tween-80
  T/C: 117 % of control
dose: 60.0 mg/kg/injection, schedule: Q04DX003 (sc), vehicle: distilled water + Tween-80
  T/C: 73 % of control
dose: 120.0 mg/kg/injection, schedule: Q04DX003 (sc), vehicle: distilled water + Tween-80
  T/C: 61 % of control

## CNC(=O)n1c(N)nc(-c2ccccc2)c1-c1ccccc1
[1]
  T/C: 105 % of control
[2]
  T/C: 62 % of control
dose: 600.0 mg/kg/injection, schedule: Q04DX003 (sc), vehicle: saline with Tween-80
  T/C: 62 % of control
dose: 1200.0 mg/kg/injection, schedule: Q04DX003 (sc), vehicle: saline with Tween-80
  T/C: 68 % of control

## OCC1OC(n2cnc3cncnc32)C(O)C1O (stereo not given)
dose: 12.5 mg/kg/injection, schedule: Q04DX003 (sc), vehicle: saline
  T/C: 90 % of control
dose: 25.0 mg/kg/injection, schedule: Q04DX003 (sc), vehicle: saline
  T/C: 106 % of control
[3]
  T/C: 78 % of control

## O=c1[nH]c(=O)c2nc(-c3cccnc3)cnc2[nH]1
dose: 200.0 mg/kg/injection, schedule: Q04DX003 (sc), vehicle: Klucel (hydroxypropylcellulose) (HPC)
  T/C: 36 % of control

## O=C(O)CSc1c(Cl)c(=O)oc2ccc(Cl)cc12
dose: 75.0 mg/kg/injection, schedule: Q04DX003 (sc), vehicle: Klucel (hydroxypropylcellulose) (HPC)
  T/C: 87 % of control
[4]
  T/C: 61 % of control and 75 % of control
[5]
  T/C: 54 % of control and 62 % of control

## CCOC(=O)C1=C(C#N)C2(CCC(OCc3ccccc3)CC2)C(=O)O1 (stereo not given)
dose: 200.0 mg/kg/injection, schedule: Q04DX003 (sc), vehicle: suspension in saline
  T/C: 81 % of control
dose: 400.0 mg/kg/injection, schedule: Q04DX003 (sc), vehicle: suspension in saline
  T/C: 119 % of control
dose: 800.0 mg/kg/injection, schedule: Q04DX003 (sc), vehicle: suspension in saline
  T/C: 52 % of control
dose: 1600.0 mg/kg/injection, schedule: Q04DX003 (sc), vehicle: suspension in saline
  T/C: 62 % of control

## C=C1C(=O)C23[C@H](O)C1CC[C@H]2[C@]12COC3(O)[C@@H](O)[C@@H]1C(C)(C)CC[C@@H]2O
dose: 12.5 mg/kg/injection, schedule: Q04DX003 (sc), vehicle: Klucel (hydroxypropylcellulose) (HPC)
  T/C: 52 % of control
dose: 25.0 mg/kg/injection, schedule: Q04DX003 (sc), vehicle: Klucel (hydroxypropylcellulose) (HPC)
  T/C: 85 % of control

## NC(=O)c1ncn2c(=O)n(CCCl)nnc12
[6]
  T/C: 69 % of control
dose: 50.0 mg/kg/injection, schedule: Q04DX003 (sc), vehicle: suspension in saline
  T/C: 30 % of control

## CC1Oc2cc3c(-c4c(O)cc(O)c5c(O)c6c(cc45)OC(C)C(C)C6=O)c(O)cc(O)c3c(O)c2C(=O)C1C (stereo not given)
dose: 9.38 mg/kg/injection, schedule: Q04DX003 (ip), vehicle: suspension in saline
  T/C: 16 % of control

## O=C(O)C1CC1.[Ag]
dose: 75.0 mg/kg/injection, schedule: Q04DX003 (sc), vehicle: saline with Tween-80
  T/C: 120 % of control
[1]
  T/C: 80 % of control
[2]
  T/C: 98 % of control

## COC12[C@@H]3N[C@@H]3CN1C1=C(C(=O)C(NCCSSCCNC3=C(C)C(=O)C4=C(C3=O)C(COC(N)=O)[C@]3(OC)C5N[C@@H]5CN43)=C(C)C1=O)[C@@H]2COC(N)=O (stereo not given in full)
dose: 3.12 mg/kg/injection, schedule: Q04DX003 (ip), vehicle: DMSO
  T/C: 17 % of control
dose: 12.5 mg/kg/injection, schedule: Q04DX003 (ip), vehicle: DMSO
  T/C: 14 % of control
dose: 25.0 mg/kg/injection, schedule: Q04DX003 (ip), vehicle: DMSO
  T/C: -1 % of control

## CC(=O)Nc1ccc(C(=O)C=O)cc1
dose: 200.0 mg/kg/injection, schedule: Q01DX010 (sc), vehicle: saline with Tween-80
  T/C: 55 % of control

## O=c1[nH]c(=O)n([C@H]2CCCO2)cc1F
[7]
  T/C: 112 % of control
dose: 200.0 mg/kg/injection, schedule: Q01DX010 (sc), vehicle: Klucel (hydroxypropylcellulose) (HPC)
  T/C: 97 % of control
dose: 800.0 mg/kg/injection, schedule: Q01DX010 (sc), vehicle: Klucel (hydroxypropylcellulose) (HPC)
  T/C: 123 % of control

## CCNC(C)(C)C(SSS)c1ccco1 (stereo not given)
[4]
  T/C: 102 % of control
[5]
  T/C: 97 % of control
[8]
  T/C: 80 % of control
[9]
  T/C: 86 % of control

## O=c1[nH]cc(F)c(=O)[nH]1
dose: 10.0 mg/kg/injection, schedule: Q01DX010 (sc), vehicle: saline
  T/C: 67 % of control and 90 % of control
[3]
  T/C: 44 % of control and 54 % of control and 55 % of control
dose: 100.0 mg/kg/injection, schedule: Q04DX003 (sc), vehicle: saline
  T/C: 13 % of control

## [Cl][Pt+2][Cl].[NH-]CC1(C[NH-])CCC1
dose: 3.12 mg/kg/injection, schedule: Q04DX003 (sc), vehicle: suspension in saline
  T/C: 48 % of control
dose: 6.25 mg/kg/injection, schedule: Q04DX003 (sc), vehicle: saline
  T/C: 6 % of control
dose: 6.25 mg/kg/injection, schedule: Q04DX003 (sc), vehicle: suspension in saline
  T/C: 19 % of control and 29 % of control
dose: 12.5 mg/kg/injection, schedule: Q04DX003 (sc), vehicle: suspension in saline
  T/C: 6 % of control and 16 % of control
[6]
  T/C: -74 % of control and -54 % of control

## O=C1NC2(CCCCC2)C(=O)N1CCN(CCCl)CCCl
dose: 3.0 mg/kg/injection, schedule: Q01DX010 (sc), vehicle: saline
  T/C: 48 % of control

## Nc1nc(=S)c2ncn(C3CC(O)C(CO)O3)c2[nH]1 (stereo not given)
dose: 0.94 mg/kg/injection, schedule: Q04DX003 (sc), vehicle: saline with Tween-80
  T/C: 97 % of control
dose: 1.88 mg/kg/injection, schedule: Q04DX003 (sc), vehicle: saline with Tween-80
  T/C: 81 % of control
dose: 3.75 mg/kg/injection, schedule: Q04DX003 (sc), vehicle: saline with Tween-80
  T/C: 97 % of control
dose: 7.5 mg/kg/injection, schedule: Q04DX003 (sc), vehicle: saline with Tween-80
  T/C: 87 % of control
dose: 50.0 mg/kg/injection, schedule: Q01DX010 (sc), vehicle: Klucel (hydroxypropylcellulose) (HPC)
  T/C: 64 % of control
[7]
  T/C: 122 % of control

## O=[N+]([O-])c1c(O)c(CNCCCO)cc(CNCCCO)c1O
dose: 37.5 mg/kg/injection, schedule: Q04DX003 (ip), vehicle: suspension in saline
  T/C: 50 % of control
dose: 75.0 mg/kg/injection, schedule: Q04DX003 (ip), vehicle: suspension in saline
  T/C: 55 % of control

## CC(C)[NH-].CC(C)[NH-].O.O.[Cl][Pt+2][Cl]
dose: 3.12 mg/kg/injection, schedule: Q01DX010 (sc), vehicle: dextrose
  T/C: 80 % of control and 97 % of control
dose: 6.25 mg/kg/injection, schedule: Q01DX010 (sc), vehicle: dextrose
  T/C: 7 % of control and 22 % of control
dose: 25.0 mg/kg/injection, schedule: Q01DX010 (sc), vehicle: dextrose
  T/C: -89 % of control

## C(C#CCN1CCOCC1)#CCN1CCOCC1
[5]
  T/C: 72 % of control
[8]
  T/C: 84 % of control
[9]
  T/C: 61 % of control

## CCOC(=O)C(CC(C)C)NC(=O)C(N)Cc1ccc(N(CCCl)CCCl)cc1 (stereo not given)
dose: 60.0 mg/kg/injection, schedule: Q04DX003 (sc), vehicle: water
  T/C: -100 % of control

## COC(=O)c1ccoc1
dose: 150.0 mg/kg/injection, schedule: Q04DX003 (sc), vehicle: saline
  T/C: 123 % of control
dose: 300.0 mg/kg/injection, schedule: Q04DX003 (sc), vehicle: saline
  T/C: 89 % of control
dose: 600.0 mg/kg/injection, schedule: Q04DX003 (sc), vehicle: saline
  T/C: 66 % of control

## Nc1nc(F)nc2c1ncn2C1OC(COP(=O)(O)O)C(O)C1O (stereo not given)
dose: 50.0 mg/kg/injection, schedule: Q01DX010 (sc), vehicle: saline
  T/C: 86 % of control
dose: 100.0 mg/kg/injection, schedule: Q01DX010 (sc), vehicle: saline
  T/C: 69 % of control
dose: 200.0 mg/kg/injection, schedule: Q01DX010 (sc), vehicle: saline
  T/C: 91 % of control

## CN1C(=O)CC2(CCN(CCCC(=O)c3ccc(F)cc3)CC2)C1=O
dose: 37.5 mg/kg/injection, schedule: Q04DX003 (sc), vehicle: suspension in saline
  T/C: 61 % of control
dose: 150.0 mg/kg/injection, schedule: Q04DX003 (sc), vehicle: suspension in saline
  T/C: 85 % of control
